This is an account of results in PubChem BioAssay (NCI).

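Grown in 96-well plates, cells were treated for 48 hours with each compound at five concentrations. Insufficient inhibition: endpoint recorded as highest concentration tested. GI50 is the concentration that inhibits growth by half. TGI marks complete inhibition of growth.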

Some test systems named below: RXF 393 renal; HCC-2998 colon; SNB-19 CNS; OVCAR-8 ovarian; MOLT-4 leukemia; UACC-257 melanoma; SK-MEL-2 melanoma; A549 NSCLC; SK-MEL-5 melanoma; A498 renal.
Assay in all cases: NCI tumour cell line growth inhibition, 48 h

In the case of `CC(C)(C)c1cc(CCC(=O)Nc2ccc(Cl)cc2Cl)nc(N)n1`, the TGI with RXF 393 renal, with HCC-2998 colon, with SNB-19 CNS, with OVCAR-8 ovarian, in the assay with MOLT-4 leukemia and in the assay with UACC-257 melanoma was more than 100 µM each time. Further, the TGI in the assay with SK-MEL-2 melanoma, in the assay with A549 NSCLC and in the assay with SK-MEL-5 melanoma was more than 100 µM throughout.
For the molecule `CCCCCCCCCC(=O)Oc1cccc2onc(C)c12`, the TGI in the assay on RXF 393 renal, in the assay on HCC-2998 colon, in the assay on SNB-19 CNS, in the assay on OVCAR-8 ovarian, with MOLT-4 leukemia and with UACC-257 melanoma was more than 100 µM in each case. Further, the TGI with SK-MEL-2 melanoma, in the assay on A549 NSCLC and in the assay with SK-MEL-5 melanoma was more than 100 µM in each case.
Take `Cc1ccccc1NC(=O)C(=O)CC(=O)c1ccc([N+](=O)[O-])cc1`: the TGI with RXF 393 renal, in the assay with HCC-2998 colon, in the assay with SNB-19 CNS, in the assay with OVCAR-8 ovarian, in the assay on UACC-257 melanoma and in the assay on SK-MEL-2 melanoma was more than 100 µM each time. This molecule also gave a TGI with A549 NSCLC of more than 100 µM.
Consider `CCOC(=O)C[C@@]12CCCNC1(C)CCc1ccccc12` (stereo partly drawn), for which the TGI in the assay on SNB-19 CNS, in the assay on OVCAR-8 ovarian, with MOLT-4 leukemia, in the assay with UACC-257 melanoma, in the assay with SK-MEL-2 melanoma and in the assay on A549 NSCLC was more than 100 µM throughout. Moreover, the TGI with SK-MEL-5 melanoma was more than 100 µM.
For `CC(=O)[CH-]C(=O)c1ccccc1.CC(=O)[CH-]C(=O)c1ccccc1.[CH2-]CCC.[CH2-]CCC.[Sn+4]`, the GI50 in the assay with RXF 393 renal was 0.258 µM; in the assay on SNB-19 CNS, 1.3 µM; in the assay on OVCAR-8 ovarian, 1.36 µM; in the assay with A498 renal, 1.66 µM; with MOLT-4 leukemia it was 0.421 µM; in the assay on UACC-257 melanoma it was 0.343 µM. Besides, the GI50 was 0.555 µM with SK-MEL-2 melanoma, 1.93 µM with A549 NSCLC and 0.625 µM with SK-MEL-5 melanoma. Further, the TGI in the assay with RXF 393 renal came out at 0.784 µM; in the assay on SNB-19 CNS it was 2.73 µM; in the assay on OVCAR-8 ovarian, 3.1 µM; in the assay with A498 renal, 3.74 µM; in the assay on MOLT-4 leukemia it was 1.86 µM; with UACC-257 melanoma it was 1.69 µM. Moreover, the results for the TGI in the assay on SK-MEL-2 melanoma, in the assay with A549 NSCLC and in the assay with SK-MEL-5 melanoma were 1.77 µM, 4.13 µM and 1.97 µM, respectively.
Regarding `O=C(O)[C@@H]1CCCC[C@@H]1C(=O)N(C1CCCCC1)C1CCCCC1`, the TGI with HCC-2998 colon, with OVCAR-8 ovarian, with A498 renal, in the assay with MOLT-4 leukemia, in the assay on UACC-257 melanoma and in the assay on SK-MEL-2 melanoma was more than 100 µM throughout. The TGI in the assay on A549 NSCLC and in the assay on SK-MEL-5 melanoma was more than 100 µM throughout.
For the molecule `O=C(O)C1C2C=CC(O2)C1C(=O)Nc1ncccn1` (stereo not drawn), the TGI with RXF 393 renal, with SNB-19 CNS, with OVCAR-8 ovarian, with A498 renal, with MOLT-4 leukemia and with UACC-257 melanoma was more than 100 µM each time. For the same molecule, the TGI in the assay on SK-MEL-2 melanoma, in the assay with A549 NSCLC and in the assay with SK-MEL-5 melanoma was more than 100 µM in each case.
With `COc1ccc2[nH]c3c(=O)[nH]ncc3c2c1`, the TGI in the assay on HCC-2998 colon, with SNB-19 CNS, in the assay on OVCAR-8 ovarian, with A498 renal, in the assay with MOLT-4 leukemia and with UACC-257 melanoma was more than 100 µM in each case. Moreover, the TGI in the assay with SK-MEL-2 melanoma, in the assay on A549 NSCLC and with SK-MEL-5 melanoma was more than 100 µM each time.
For the molecule `NC(=O)c1c[se]c(C2OC(COP(=O)(O)CP(=O)(O)OCC3OC(n4cnc5c(N)ncnc54)C(O)C3O)C(O)C2O)n1` (stereo not drawn), the TGI with RXF 393 renal, with SNB-19 CNS, in the assay with OVCAR-8 ovarian, in the assay with A498 renal, in the assay on MOLT-4 leukemia and in the assay on UACC-257 melanoma was more than 100 µM in each case. Moreover, the TGI with SK-MEL-2 melanoma, in the assay on A549 NSCLC and in the assay with SK-MEL-5 melanoma was more than 100 µM throughout.
In the case of `COC(=O)C1(F)C(=O)NC(=O)NC1OC` (stereo not drawn), the TGI with SNB-19 CNS, in the assay with OVCAR-8 ovarian, with A498 renal, in the assay on MOLT-4 leukemia, in the assay on UACC-257 melanoma and with SK-MEL-2 melanoma was more than 100 µM in each case. Also, the TGI with A549 NSCLC and in the assay on SK-MEL-5 melanoma was more than 100 µM in each case.
For `CN(C)CCCC1(c2ccc(F)cc2)OCc2cc(-c3cncc4ccccc34)ccc21` (stereo not drawn), the GI50 was 2.51 µM with RXF 393 renal; 1.84 µM in the assay with HCC-2998 colon; 2.35 µM in the assay with SNB-19 CNS; 4.48 µM in the assay on OVCAR-8 ovarian; 2.39 µM in the assay on MOLT-4 leukemia; 2.02 µM in the assay with UACC-257 melanoma. In addition, the GI50 in the assay with SK-MEL-2 melanoma is 2.14 µM; with A549 NSCLC, 3.92 µM; with SK-MEL-5 melanoma, 1.77 µM. Moreover, the TGI turned out to be 10.1 µM in the assay on RXF 393 renal; 3.71 µM with HCC-2998 colon; 7.4 µM in the assay with SNB-19 CNS; 19.8 µM in the assay with OVCAR-8 ovarian; 6.7 µM in the assay on MOLT-4 leukemia; 4 µM with UACC-257 melanoma. Moreover, the TGI in the assay with SK-MEL-2 melanoma came to 4.74 µM; in the assay on A549 NSCLC, 16.2 µM; in the assay with SK-MEL-5 melanoma, 3.2 µM.
Take `CC[P+]1(CC)CCCC1`: the TGI with RXF 393 renal, in the assay on HCC-2998 colon, in the assay with SNB-19 CNS, in the assay with OVCAR-8 ovarian, with MOLT-4 leukemia and in the assay with UACC-257 melanoma was more than 100 µM in each case. For the same molecule, the TGI in the assay on SK-MEL-2 melanoma, in the assay with A549 NSCLC and in the assay with SK-MEL-5 melanoma was more than 100 µM in each case.
On to `COC(=O)[C@H](Cc1ccccc1)NC(=O)c1csc([C@@H](C[C@H](C(C)C)N(C)C(=O)[C@@H](NC(=O)[C@H]2CCCN2C)C2CC2)OC(C)=O)n1`, for which the GI50 in the assay on HCC-2998 colon is 1.48 µM; in the assay on SNB-19 CNS, 0.943 µM; in the assay on OVCAR-8 ovarian, 0.602 µM; in the assay with A498 renal, 1.53 µM; in the assay on MOLT-4 leukemia, 0.215 µM; in the assay on UACC-257 melanoma it was 16.9 µM. The values for the GI50 in the assay on SK-MEL-2 melanoma, with A549 NSCLC and in the assay with SK-MEL-5 melanoma were 0.728 µM, 0.977 µM and 0.671 µM, respectively. Moreover, the TGI in the assay with HCC-2998 colon was more than 33.3 µM; in the assay with SNB-19 CNS, more than 33.3 µM; in the assay with OVCAR-8 ovarian, more than 33.3 µM; in the assay on A498 renal, 15.2 µM; in the assay with MOLT-4 leukemia, more than 33.3 µM; with UACC-257 melanoma it was more than 33.3 µM. Also, the TGI with SK-MEL-2 melanoma is more than 33.3 µM; in the assay with A549 NSCLC, more than 33.3 µM; with SK-MEL-5 melanoma, 8.99 µM.
